Measured values reported in DBAASP.
≈ marks a conversion by molar mass, not a printed value. One block for each molecule: values may come before it.

Key:
Assay in all cases: ≥ marks a high value that may be exact or a test limit, other limits are often not marked, values filed in µg/mL are converted to µM
[1] = test system: Pseudomonas aeruginosa PAK
[2] = test system: Staphylococcus aureus
[3] = test system: Streptococcus gordonii Challis DL1
[4] = test system: Streptococcus mitis ATCC 903
[5] = test system: Streptococcus mutans UA159
[6] = test system: Streptococcus sanguinis NY101
[7] = test system: Bacillus subtilis ATCC 62037
[8] = test system: Candida albicans ATCC 10231
[9] = test system: Cryptococcus neoformans ATCC 34881
[10] = test system: Escherichia coli ATCC 27325
[11] = test system: Pseudomonas putida ATCC 17426
[12] = test system: Saccharomyces cerevisiae ATCC 44774
[13] = test system: Serratia sp. ATCC 21074
[14] = test system: Staphylococcus aureus ATCC 15752
[15] = test system: Streptococcus mutans ATCC 25175
[16] = test system: Enterobacter cloacae BCRC 10401
[17] = test system: Escherichia coli BCRC 10675
[18] = test system: Klebsiella aerogenes BCRC 10370
[19] = test system: Klebsiella oxytoca BCRC 13985
[20] = test system: Lactococcus garvieae
[21] = test system: Listeria monocytogenes BCRC 14845
[22] = test system: Pseudomonas aeruginosa BCRC 10944
[23] = test system: Staphylococcus aureus BCRC 10780
[24] = test system: Staphylococcus aureus BCRC 10781
[25] = test system: Staphylococcus xylosus BCRC 12930
[26] = test system: Streptococcus equinus BCRC 14729
[27] = test system: Streptococcus iniae
[28] = test system: Vibrio alginolyticus BCRC 12829
[29] = test system: Vibrio alginolyticus
[30] = test system: Vibrio anguillarum serotype O1
[31] = test system: Vibrio harveyi
[32] = test system: Vibrio parahaemolyticus BCRC 10806
[33] = test system: Vibrio parahaemolyticus
[34] = test system: Yersinia enterocolitica BCRC 13999
[35] = test system: Escherichia coli DH5alpha
[36] = test system: Micrococcus luteus ATCC 4698
[37] = test system: Staphylococcus aureus ATCC 6538
[38] = test system: Staphylococcus epidermidis ATCC 12228

MIC [1]: 9.96 µM (≈ 32 µg/mL)
MIC [2]: 19.5 µM (≈ 62.5 µg/mL)
MIC [3]: 2.49 µM (≈ 8 µg/mL)
MIC [4]: 9.96 µM (≈ 32 µg/mL)
MIC [5]: 4.98 µM (≈ 16 µg/mL)
MIC [6]: 4.98 µM (≈ 16 µg/mL)
Structure (SMILES): CC[C@H](C)[C@H](NC(=O)[C@H](Cc1ccccc1)NC(=O)[C@H](Cc1cnc[nH]1)NC(=O)[C@H](CCCCN)NC(=O)[C@@H](NC(=O)[C@@H](N)Cc1ccccc1)[C@@H](C)CC)C(=O)N[C@@H](Cc1cnc[nH]1)C(=O)N[C@@H](CCCN=C(N)N)C(=O)N[C@@H](Cc1ccccc1)C(=O)N[C@@H](CO)C(=O)N[C@@H](C)C(=O)N[C@H](C(=O)N[C@@H](CC(C)C)C(=O)N[C@@H](CCC(N)=O)C(=O)N[C@@H](CC(C)C)C(=O)N[C@@H](CC(C)C)C(=O)N[C@@H](CCCCN)C(=O)N[C@@H](CCC(N)=O)C(=O)N[C@@H](CC(C)C)C(=O)N[C@@H](CC(C)C)C(=O)N[C@@H](CCCCN)C(=O)N[C@@H](CC(C)C)C(=O)N[C@@H](CC(C)C)C(=O)N[C@@H](CCCCN)C(=O)N[C@@H](CCC(N)=O)C(=O)N[C@@H](Cc1ccccc1)C(N)=O)[C@@H](C)O [FIKHFIHRFSATLQLLKQLLKLLKQF]

MIC [7]: 2.23 µM (≈ 8 µg/mL)
MIC [8]: 3.34 µM (≈ 12 µg/mL)
MIC [9]: 4.46 µM (≈ 16 µg/mL)
MIC [10]: 2.23 µM (≈ 8 µg/mL)
MIC [11]: 3.34 µM (≈ 12 µg/mL)
MIC [12]: 2.23 µM (≈ 8 µg/mL)
MIC [13]: 3.34 µM (≈ 12 µg/mL)
MIC [14]: 3.34 µM (≈ 12 µg/mL)
MIC [15]: 5.57 µM (≈ 20 µg/mL)
Structure (SMILES): CC[C@H](C)[C@H](NC(=O)[C@H](CCCN=C(N)N)NC(=O)[C@H](CCC(=O)O)NC(=O)[C@@H]1CCCN1C(=O)[C@@H]1CCCN1C(=O)[C@H](Cc1ccc(O)cc1)NC(=O)[C@H](CC(C)C)NC(=O)[C@H](Cc1ccccc1)NC(=O)[C@H](CCC(N)=O)NC(=O)[C@@H]1CCCN1C(=O)CNC(=O)[C@@H](NC(=O)[C@H](Cc1ccc(O)cc1)NC(=O)[C@H](CCC(N)=O)NC(=O)[C@H](CC(N)=O)NC(=O)[C@H](CCCCN)NC(=O)[C@H](CCCN=C(N)N)NC(=O)[C@H](CCC(=O)O)NC(=O)[C@H](CO)NC(=O)[C@H](Cc1ccc(O)cc1)NC(=O)[C@@H]1CCCN1C(=O)[C@H](CCCN=C(N)N)NC(=O)[C@H](CCCCN)NC(=O)[C@H](CC(=O)O)NC(=O)[C@H](CCCCN)NC(=O)[C@H](CCC(N)=O)NC(=O)[C@@H](N)CCCN=C(N)N)[C@@H](C)O)C(=O)N1CCC[C@H]1C(=O)N1CCC[C@H]1C(=O)O [RQKDKRPYSERKNQYTGPQFLYPPERIPP]

MIC [1]: 9.96 µM (≈ 32 µg/mL)
MIC [2]: 9.96 µM (≈ 32 µg/mL)
MIC [3]: 4.98 µM (≈ 16 µg/mL)
MIC [4]: 9.96 µM (≈ 32 µg/mL)
MIC [5]: 2.49 µM (≈ 8 µg/mL)
MIC [6]: 4.98 µM (≈ 16 µg/mL)
Structure (SMILES): CC[C@H](C)[C@H](NC(=O)[C@H](Cc1ccccc1)NC(=O)[C@H](Cc1cnc[nH]1)NC(=O)[C@H](CCCCN)NC(=O)[C@@H](NC(=O)[C@H](Cc1ccccc1)NC(=O)[C@@H](NC(=O)[C@H](C)NC(=O)[C@H](CO)NC(=O)[C@H](Cc1ccccc1)NC(=O)[C@H](CCC(N)=O)NC(=O)[C@H](CCCCN)NC(=O)[C@H](CC(C)C)NC(=O)[C@H](CC(C)C)NC(=O)[C@H](CCCCN)NC(=O)[C@H](CC(C)C)NC(=O)[C@H](CC(C)C)NC(=O)[C@H](CCC(N)=O)NC(=O)[C@H](CCCCN)NC(=O)[C@H](CC(C)C)NC(=O)[C@H](CC(C)C)NC(=O)[C@H](CCC(N)=O)NC(=O)[C@@H](N)CC(C)C)[C@@H](C)O)[C@@H](C)CC)C(=O)N[C@@H](Cc1cnc[nH]1)C(=O)N[C@@H](CCCN=C(N)N)C(=O)N[C@@H](Cc1ccccc1)C(N)=O [LQLLKQLLKLLKQFSATFIKHFIHRF]

MIC [16]: 3.54 µM (≈ 8 µg/mL)
MIC [17]: 7.09 µM (≈ 16 µg/mL)
MIC [18]: 7.09 µM (≈ 16 µg/mL)
MIC [19]: 14.2 µM (≈ 32 µg/mL)
MIC [20]: ≥ 56.7 µM
MIC [21]: 14.2 µM (≈ 32 µg/mL)
MIC [22]: 7.09 µM (≈ 16 µg/mL)
MIC [23]: 14.2 µM (≈ 32 µg/mL)
MIC [24]: 14.2 µM (≈ 32 µg/mL)
MIC [25]: 1.77 µM (≈ 4 µg/mL)
MIC [26]: ≥ 56.7 µM
MIC [27]: ≥ 56.7 µM
MIC [28]: ≥ 56.7 µM
MIC [29]: 1.77 µM (≈ 4 µg/mL)
MIC [30]: 14.2 µM (≈ 32 µg/mL)
MIC [31]: 14.2 µM (≈ 32 µg/mL)
MIC [34]: 14.2 µM (≈ 32 µg/mL)
Structure (SMILES): CC[C@H](C)[C@H](NC(=O)CN)C(=O)N[C@@H](CCCCN)C(=O)N[C@H](C(=O)N[C@@H](C)C(=O)N[C@@H](CCCCN)C(=O)N[C@@H](CCCCN)C(=O)N[C@@H](C)C(=O)N[C@H](C(=O)N[C@H](C(=O)N[C@H](C(=O)N[C@@H](C)C(=O)N[C@@H](CCCCN)C(=O)N[C@@H](CCCCN)C(=O)N[C@H](C(=O)N[C@@H](C)C(=O)N[C@@H](CCCCN)C(=O)N[C@H](C(=O)N[C@@H](Cc1ccc(O)cc1)C(=O)N[C@@H](Cc1c[nH]c2ccccc12)C(=O)O)[C@@H](C)CC)[C@@H](C)CC)[C@@H](C)CC)[C@@H](C)O)[C@@H](C)CC)[C@@H](C)CC [GIKIAKKAITIAKKIAKIYW]
MIC [32]: ≥ 56.7 µM
MIC [33]: 7.09 µM (≈ 16 µg/mL)

MIC [16]: 6.92 µM (≈ 16 µg/mL)
MIC [17]: 6.92 µM (≈ 16 µg/mL)
MIC [18]: 6.92 µM (≈ 16 µg/mL)
MIC [19]: 13.8 µM (≈ 32 µg/mL)
MIC [20]: ≥ 55.4 µM
MIC [21]: 13.8 µM (≈ 32 µg/mL)
MIC [22]: 13.8 µM (≈ 32 µg/mL)
MIC [23]: 3.46 µM (≈ 8 µg/mL)
MIC [24]: 6.92 µM (≈ 16 µg/mL)
MIC [25]: 6.92 µM (≈ 16 µg/mL)
MIC [26]: ≥ 55.4 µM
MIC [27]: ≥ 55.4 µM
MIC [28]: 13.8 µM (≈ 32 µg/mL)
MIC [29]: 6.92 µM (≈ 16 µg/mL)
MIC [30]: 6.92 µM (≈ 16 µg/mL)
MIC [31]: 3.46 µM (≈ 8 µg/mL)
MIC [34]: ≥ 55.4 µM
Structure (SMILES): CC[C@H](C)[C@H](NC(=O)[C@H](Cc1ccc(O)cc1)NC(=O)[C@H](CC(N)=O)NC(=O)[C@H](Cc1ccccc1)NC(=O)[C@@H](NC(=O)[C@H](CCCCN)NC(=O)[C@H](CCCCN)NC(=O)[C@@H](NC(=O)[C@H](CC(C)C)NC(=O)[C@H](CC(N)=O)NC(=O)[C@H](C)NC(=O)[C@H](Cc1ccccc1)NC(=O)[C@H](CCCCN)NC(=O)[C@H](CCCCN)NC(=O)[C@H](C)NC(=O)[C@H](C)NC(=O)[C@H](CC(N)=O)NC(=O)[C@H](C)NC(=O)CN)[C@@H](C)CC)[C@@H](C)CC)C(=O)N[C@@H](Cc1c[nH]c2ccccc12)C(=O)O [GANAAKKFANLIKKIFNYIW]
MIC [32]: 13.8 µM (≈ 32 µg/mL)
MIC [33]: 6.92 µM (≈ 16 µg/mL)

MIC [35]: 7.83 µM (≈ 12 µg/mL)
MIC [36]: 1.96 µM (≈ 3 µg/mL)
MIC [37]: 5.87 µM (≈ 9 µg/mL)
MIC [38]: 6.52 µM (≈ 10 µg/mL)
Structure (SMILES): CC(C)C[C@H](NC(=O)[C@H](CC(C)C)NC(=O)[C@H](CCCCN)NC(=O)[C@H](CCCCN)NC(=O)[C@H](CC(C)C)NC(=O)[C@H](C)NC(=O)[C@H](CCCCN)NC(=O)[C@H](Cc1ccccc1)NC(=O)[C@H](CC(C)C)NC(=O)[C@H](C)NC(=O)[C@H](CCCCN)NC(=O)[C@H](CC(C)C)NC(=O)[C@@H](N)Cc1ccccc1)C(=O)O [FLKALFKALKKLL]

MIC [36]: ≥ 75 µM
Structure (SMILES): CC[C@H](C)[C@@H]1NC(=O)[C@H](CO)NC(=O)[C@H](CCCCN)NC(=O)[C@@H](N)CSSC[C@@H](C(=O)NCC(=O)O)NC(=O)[C@H](CCCN=C(N)N)NC(=O)CNC(=O)[C@@H]2CCCN2C1=O [CKSIPGRCG]
